Here are results for 32 molecules from ChEMBL document CHEMBL1134488, “Potent reversible inhibitors of the protein tyrosine phosphatase CD45” (J Med Chem, 2001).

Test [1] has as its target T1, Receptor-type tyrosine-protein phosphatase C (Homo sapiens, UniProt P08575).
T1 sequence (P08575 whole entry): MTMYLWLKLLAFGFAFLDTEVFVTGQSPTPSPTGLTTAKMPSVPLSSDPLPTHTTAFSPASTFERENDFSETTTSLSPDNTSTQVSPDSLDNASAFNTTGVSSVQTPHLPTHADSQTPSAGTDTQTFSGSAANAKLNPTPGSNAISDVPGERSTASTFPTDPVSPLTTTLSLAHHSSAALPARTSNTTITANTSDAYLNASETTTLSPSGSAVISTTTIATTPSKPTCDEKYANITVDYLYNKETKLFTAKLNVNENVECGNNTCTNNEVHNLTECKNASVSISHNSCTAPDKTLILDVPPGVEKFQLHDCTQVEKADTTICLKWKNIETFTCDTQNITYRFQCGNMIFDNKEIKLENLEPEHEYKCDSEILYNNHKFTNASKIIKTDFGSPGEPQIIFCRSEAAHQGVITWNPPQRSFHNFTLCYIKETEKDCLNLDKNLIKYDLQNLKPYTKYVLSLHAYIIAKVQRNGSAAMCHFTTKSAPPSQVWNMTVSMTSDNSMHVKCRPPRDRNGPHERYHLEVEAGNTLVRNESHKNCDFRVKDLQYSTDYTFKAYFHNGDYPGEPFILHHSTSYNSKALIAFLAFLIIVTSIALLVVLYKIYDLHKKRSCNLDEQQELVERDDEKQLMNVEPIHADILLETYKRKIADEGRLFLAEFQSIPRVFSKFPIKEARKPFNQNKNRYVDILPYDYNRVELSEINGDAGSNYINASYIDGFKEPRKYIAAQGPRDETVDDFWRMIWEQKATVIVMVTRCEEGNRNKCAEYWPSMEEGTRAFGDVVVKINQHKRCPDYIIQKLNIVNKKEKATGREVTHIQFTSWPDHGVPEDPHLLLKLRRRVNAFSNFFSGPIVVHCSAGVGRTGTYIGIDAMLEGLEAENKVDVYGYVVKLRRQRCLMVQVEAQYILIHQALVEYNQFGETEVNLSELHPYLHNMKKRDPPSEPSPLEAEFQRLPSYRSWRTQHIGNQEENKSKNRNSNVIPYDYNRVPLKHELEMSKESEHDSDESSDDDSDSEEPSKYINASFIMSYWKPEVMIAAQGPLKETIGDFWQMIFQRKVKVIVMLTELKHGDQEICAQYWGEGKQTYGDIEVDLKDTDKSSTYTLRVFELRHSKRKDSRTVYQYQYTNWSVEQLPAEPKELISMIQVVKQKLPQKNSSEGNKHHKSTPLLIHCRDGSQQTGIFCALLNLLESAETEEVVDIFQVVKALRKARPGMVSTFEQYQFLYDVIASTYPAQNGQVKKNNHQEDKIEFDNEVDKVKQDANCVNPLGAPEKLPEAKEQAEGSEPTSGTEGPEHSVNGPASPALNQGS
The test can be described thus: In vitro inhibitory activity against the cytosolic portion of CD45 protein-tyrosine phosphatase using pNPP as the substrate.

Test [2] deals with T-cell. Briefly: Cytotoxicity measured against human T-cells. It is filed as functional.
The test system of test [3] is T-cell. Briefly: In vitro inhibition of human T-cell proliferation. It is filed as functional, cell-based.
Test [4] addresses T1, Receptor-type tyrosine-protein phosphatase C. Briefly: Inhibitory concentration against CD45 protein-tyrosine phosphatase using lck-10 mer as substrate.
Test [5] has as its target T2, Tyrosine-protein phosphatase non-receptor type 1 (Homo sapiens, UniProt P18031).
T2 sequence (P18031 whole entry): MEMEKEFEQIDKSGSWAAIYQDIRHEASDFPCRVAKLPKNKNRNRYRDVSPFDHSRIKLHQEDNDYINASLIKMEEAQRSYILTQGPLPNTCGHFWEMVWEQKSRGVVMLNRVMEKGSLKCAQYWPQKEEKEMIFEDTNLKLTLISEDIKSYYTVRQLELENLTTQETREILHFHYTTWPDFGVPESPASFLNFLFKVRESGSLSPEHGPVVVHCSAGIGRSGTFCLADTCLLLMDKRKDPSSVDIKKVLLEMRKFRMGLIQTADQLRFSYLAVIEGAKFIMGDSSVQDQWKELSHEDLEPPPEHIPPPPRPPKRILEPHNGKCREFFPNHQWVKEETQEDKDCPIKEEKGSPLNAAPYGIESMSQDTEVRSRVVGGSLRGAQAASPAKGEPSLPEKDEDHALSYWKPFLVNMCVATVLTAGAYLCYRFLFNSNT
Briefly: Inhibitory concentration against PTP1B using lck as substrate.

pIC50: −log10 of the molar value. Where a SMILES comes first, the peptide text is derived from it. The star is where a group is joined. Phenanthrenequinone2carbonyl = O=C1C(=O)c2cc(C(=O)*)ccc2-c2ccccc21; 3Phenanthroyl(9,10-dioxo) = O=C1C(=O)c2ccc(C(=O)*)cc2-c2ccccc21; X1 = O=C1C(=O)c2cc(N*)ccc2-c2ccccc21

For orientation: pIC50 means −log10 of the IC50, conventionally taken in molar units. As for `O=C1C=C(NCCCN2CCCCC2)c2ccccc2C1=O`, in test [1], the pIC50 was below 4.52.
As a reminder, the CC50 is the concentration giving 50% cytotoxicity. In the case of `O=C1C(=O)c2cc(NC(=O)c3c(Cl)cc(Cl)cc3Cl)ccc2-c2ccccc21`, the CC50 in test [2] came to 12 µM. Moreover, the pIC50 in test [3] was 5.89; in test [1], 5.27.
The like results for `COC(=O)CCCCCCC(=O)Nc1ccc2c(c1)-c1ccccc1C(=O)C2=O` were, in that order, 28 µM, 5.89 and 6.15.
Take `O=C1C(=O)c2cc(-c3cc4ccccc4o3)ccc2-c2ccccc21`: the midpoint of cytotoxicity in test [2], the CC50, lay at 3.6 µM. Further, the pIC50 is below 4.52 in test [4] and 4.72 in test [5].
For `O=C1C=C(Nc2ccccc2)c2ccccc2C1=O`, the pIC50 in test [1] was below 4.52.
On to `O=C(O)CC/N=C1\C=C(O)C(=O)c2ccccc21`, for which the pIC50 in test [1] was below 4.52.
Take `O=C1C(=O)c2cccc([N+](=O)[O-])c2-c2ccc([N+](=O)[O-])cc21`: the CC50 in test [2] was above 30 µM. In addition, the pIC50 in test [3] and in test [1] was below 4.52 throughout.
For `O=C1C(=O)c2cc(-c3ccccc3F)ccc2-c2ccccc21`, the CC50 in test [2] amounted to 8.4 µM. For the same molecule, the pIC50 in test [4] is below 4.52; in test [5] it was 4.74; in test [1], 6.10.
In turn, `O=C1C(=O)c2ccoc2-c2ccccc21` showed a CC50 in test [2] of 3.5 µM. For the same molecule, in test [5], the negative logarithm of the IC50 (pIC50) is below 4.52.
In turn, `CC(C)(C)OC(=O)CNC(=O)c1ccc2c(c1)C(=O)C(=O)c1ccccc1-2` yielded a CC50 in test [2] of 10 µM. Further, the pIC50 is 6.40 in test [3] and below 4.52 in test [5].
Molecule `CCCC(=O)Nc1ccc2c(c1)-c1ccccc1C(=O)C2=O` showed a CC50 in test [2] of 9.1 µM. Also, the pIC50 in test [4] is 5.28; in test [3], 6.10; in test [5], below 4.52; in test [1], 6.10.
For the molecule `COc1ccccc1-c1ccc2c(c1)C(=O)C(=O)c1ccccc1-2`, it took 9.5 µM to reach half-maximal cytotoxicity in test [2] (CC50). The pIC50 in test [4] is below 4.52; in test [5], 4.80.
Regarding `CC(=O)NC(CCC(N)=O)C(=O)N[C@@H](CC(=O)Nc1ccc2c(c1)C(=O)C(=O)c1ccccc1-2)C(=O)O` (some centres not stated), the pIC50 is below 4.52 in test [3] and 5.96 in test [1].
On to `O=C1C(=O)c2cc(Br)ccc2-c2ccccc21`, for which, in test [2], half-maximal cytotoxicity (CC50) was put at 5 µM. In addition, the pIC50 in test [3] is 6.22; in test [1], 6.40.
With `O=C(COCc1ccccc1)Nc1ccc2c(c1)C(=O)C(=O)c1ccccc1-2`, half-maximal cytotoxicity in test [2] (CC50) was put at 14 µM. Besides, the pIC50 in test [3] is 6.00; in test [5] it was 4.74.
In turn, `CC(C)(C)OC(=O)CNC(=O)c1ccc2c(c1)-c1ccccc1C(=O)C2=O` came in with a CC50 in test [2] of 3.2 µM. The pIC50 is 6.49 in test [3] and 6.22 in test [1].
On to `CC(=O)N[C@@H](CCC(=O)O)C(=O)NCC(=O)N[C@@H](CCC(N)=O)C(=O)N[C@@H](CC(=O)Nc1ccc2c(c1)C(=O)C(=O)c1ccccc1-2)C(=O)O` (Ac-EGQD(X1)-OH), for which the pIC50 was below 4.52 in test [3] and 5.82 in test [1].
Consider `N=C(N)NCCC[C@H](NC(=O)c1ccc2c(c1)C(=O)C(=O)c1ccccc1-2)C(=O)N[C@@H](CCC(=O)O)C(=O)N1CCC[C@H]1C(=O)N[C@@H](CCCNC(=N)N)C(=O)N[C@@H](CCC(=O)O)C(=O)O` (Phenanthrenequinone2carbonyl-REPRE-OH), for which the CC50 in test [2] is above 30 µM. For the same molecule, the pIC50 in test [3] was 4.70; in test [1] it was 6.05.
On to `N=C(N)NCCC[C@H](NC(=O)c1ccc2c(c1)C(=O)C(=O)c1ccccc1-2)C(=O)N[C@@H](CCCNC(=N)N)C(=O)N1CCC[C@H]1C(=O)N[C@@H](CCCNC(=N)N)C(=O)NCC(=O)O` (Phenanthrenequinone2carbonyl-RRPRG-OH), for which the CC50 in test [2] is above 30 µM. For the same molecule, the negative-log IC50 (pIC50) in test [3] was 4.68.
In test [2], `NC(=O)CC[C@H](NC(=O)[C@H](CCC(=O)O)NC(=O)c1ccc2c(c1)-c1ccccc1C(=O)C2=O)C(=O)NCC(=O)N[C@@H](CCC(N)=O)C(=O)N1CCC[C@H]1C(=O)O` ({3Phenanthroyl(9,10-dioxo)}-EQGQP-OH) returned a CC50 above 30 µM. In addition, the pIC50 in test [3] was 5.15.
In test [2], `NC(=O)CC[C@H](NC(=O)[C@@H]1CCCN1C(=O)[C@H](CCC(N)=O)NC(=O)[C@H](CCC(=O)O)NC(=O)c1ccc2c(c1)-c1ccccc1C(=O)C2=O)C(=O)N1CCC[C@H]1C(=O)O` ({3Phenanthroyl(9,10-dioxo)}-EQPQP-OH) came in with a CC50 above 30 µM. The pIC50 in test [3] was below 4.52.
The like results for `NC(=O)CC[C@H](NC(=O)CNC(=O)[C@H](CCC(=O)O)NC(=O)CNC(=O)c1ccc2c(c1)-c1ccccc1C(=O)C2=O)C(=O)N1CCC[C@H]1C(=O)O` ({3Phenanthroyl(9,10-dioxo)}-GEGQP-OH) were, in that order, above 30 µM and 4.98.
For `NC(=O)CC[C@H](NC(=O)[C@@H]1CCCN1C(=O)[C@H](CCC(=O)O)NC(=O)CNC(=O)c1ccc2c(c1)-c1ccccc1C(=O)C2=O)C(=O)N1CCC[C@H]1C(=O)O` ({3Phenanthroyl(9,10-dioxo)}-GEPQP-OH), the CC50 in test [2] was above 30 µM. In test [3], this molecule showed a pIC50 below 4.52.
The like results for `NC(=O)CC[C@H](NC(=O)CNC(=O)c1ccc2c(c1)-c1ccccc1C(=O)C2=O)C(=O)NCC(=O)N[C@@H](CCC(=O)O)C(=O)N1CCC[C@H]1C(=O)O` ({3Phenanthroyl(9,10-dioxo)}-GQGEP-OH) were, in that order, above 30 µM and below 4.52.
Consider `NC(=O)CC[C@H](NC(=O)CNC(=O)c1ccc2c(c1)-c1ccccc1C(=O)C2=O)C(=O)NCC(=O)N[C@@H](CCC(N)=O)C(=O)N1CCC[C@H]1C(=O)O` ({3Phenanthroyl(9,10-dioxo)}-GQGQP-OH), for which, in test [2], the CC50 was above 30 µM. Also, the pIC50 in test [3] was 4.70.
The like results for `NC(=O)CC[C@H](NC(=O)[C@@H]1CCCN1C(=O)[C@H](CCC(N)=O)NC(=O)CNC(=O)c1ccc2c(c1)-c1ccccc1C(=O)C2=O)C(=O)N1CCC[C@H]1C(=O)O` ({3Phenanthroyl(9,10-dioxo)}-GQPQP-OH) were, in that order, above 30 µM and below 4.52.
The like results for `NC(=O)CC[C@H](NC(=O)c1ccc2c(c1)-c1ccccc1C(=O)C2=O)C(=O)N[C@@H](CCC(=O)O)C(=O)NCC(=O)N[C@@H](CCC(N)=O)C(=O)N1CCC[C@H]1C(=O)O` ({3Phenanthroyl(9,10-dioxo)}-QEGQP-OH) were, in that order, above 30 µM and 4.80.
`NC(=O)CC[C@H](NC(=O)c1ccc2c(c1)-c1ccccc1C(=O)C2=O)C(=O)N[C@@H](CCC(=O)O)C(=O)N1CCC[C@H]1C(=O)N[C@@H](CCC(N)=O)C(=O)N1CCC[C@H]1C(=O)O` ({3Phenanthroyl(9,10-dioxo)}-QEPQP-OH) registered a CC50 in test [2] above 30 µM. For the same molecule, the pIC50 in test [3] is 5.30.
Molecule `NC(=O)CC[C@H](NC(=O)c1ccc2c(c1)-c1ccccc1C(=O)C2=O)C(=O)N[C@@H](CCC(N)=O)C(=O)NCC(=O)N[C@@H](CCC(N)=O)C(=O)N1CCC[C@H]1C(=O)O` ({3Phenanthroyl(9,10-dioxo)}-QQGQP-OH) showed a CC50 in test [2] above 30 µM. In test [3], this molecule had a pIC50 of 4.84.
In test [2], `NC(=O)CC[C@H](NC(=O)c1ccc2c(c1)-c1ccccc1C(=O)C2=O)C(=O)N[C@@H](CCC(N)=O)C(=O)N1CCC[C@H]1C(=O)N[C@@H](CCC(N)=O)C(=O)N1CCC[C@H]1C(=O)O` ({3Phenanthroyl(9,10-dioxo)}-QQPQP-OH) came in with a CC50 above 30 µM. Further, the pIC50 in test [3] is below 4.52.
As to `O=C1C=Cc2ccccc2C1=O` [1,2-NAPHTHOQUINONE], the CC50 in test [2] is above 30 µM. Moreover, the pIC50 in test [3] was 5.15.
`O=C1C(=O)c2ccccc2-c2ccccc21` [9,10-PHENANTHRENEQUINONE] gave a half-maximal cytotoxic concentration (CC50) in test [2] of 1.3 µM. Also, the pIC50 in test [3] was 6.52; in test [5] it was below 4.52.
